Series [1] concerns C3H10T1/2 clone 8 murine fibroblasts. The series can be described thus: Osteoblast differentiation assay (alkaline phosphatase activity). It is filed as cell-based. The protocol: C3H10T1/2 clone 8 murine fibroblasts (American Type Culture Collection) below passage 22 were maintained in Dulbecco's modified Eagle's medium (Life Technologies, Inc.) supplemented with 10% fetal calf serum and 100 units/mL penicillin G and 100 microgram/mL streptomycin. One day after passage into 96-well microtiter plates (12.5×10^3 cells/cm^2), the cells were treated with 625 nanomolar all-trans retinoic acid, 1 micromolar rosiglitazone and 1 micromolar insulin (Sigma, St. Louis, Mo.). Vehicle or test compounds, which had been solublized to 10 mM in DMSO and then serially diluted from 2e-5 M to 4e-8 M into medium, were added. After 7 days, alkaline phosphatase activity, a surrogate measure for osteogenesis, was determined using Sigma-Fast pNPP substrate (N-2770) according to the manufacturer's specifications (Sigma, St. Louis, Mo.) (see Paulik, M. A. and Lenhard, J. M., Cell Tissue Res., (1997), Vol. 290, pp 79-87). The substrate (50 microliters/well) was incubated with the cells at 37° C. for 10 min and the absorbance read at 405 nm. The % maximum stimulation of alkaline phosphatase activity was calculated relative to cells treated with 10 micromolar all-trans retinoic acid.

Series [2] deals with C57BL/KsJ db/db mice. The series can be described thus: In vivo assay in db/db mice. Conditions: male db/db mice, 50 mg/kg oral once daily, mean ± standard error. The method, then:
Age and weight matched male C57BL/KsJ db/db mice (Jackson Labs, Bar Harbor, Me.) were housed 5 animals/cage at 72° F. and 50% relative humidity with a 12 h light and dark cycle, and fed chow diet (NIH R&M/Auto 6F-Ovals 5K67, PMI Feeds® Inc., Richmond, Ind.). Animals starting at 6 weeks of age were orally gavaged once daily (8:00-9:00 AM) with TPGS/PG (25/75) or 50 mg/kg the compound of Example 4 in TPGS/PG (25/75). After 2 weeks of dosing, the animals were anesthetized with isofluorane, blood was drawn by cardiac puncture, and non-fasting measurements of glucose, insulin, and glycosylated hemoglobin (GHB) were obtained. Blood glucose was determined using an automated chemistry analyzer (Technicon Axon). GHB measurements were performed using a Columnmate Analyzer (Helena Instrument). Insulin concentrations in serum were measured by chemiluminescence using an Origen Analyzer (Igen Inc.). Body weights were recorded at the beginning and end of the study. All data was calculated as the mean and standard error from experiments performed on ≧9 animals per treatment group.

Results on 1 compound are retold here after patent US6541492B1, “Thiazole derivatives as PPAR gamma ligands” (SmithKline Beecham Corporation, priority 1999, dated 2003).

The structures appear in SMILES notation.

On to `CCCCCC[C@@H]1S[C@@H](CC(=O)N(CCCC)CCCC)C(=O)N1CCCCc1ccc(C(=O)O)cc1` (relative stereo) [Example 4, (2S*,5S*)-4-(4-(4-Carboxyphenyl)butyl)-2-hexyl-4-oxo-5-thiazolidine N,N-Dibutylacetamide], for which the “% Stimulation” value in series [1] (% maximum stimulation of alkaline phosphatase activity relative to cells treated with 10 micromolar all-trans retinoic acid) came to 71%. Moreover, the pEC50 (as a rule, the EC50 on a negative log10 scale, so that one unit is a factor of ten) in series [1] (alkaline phosphatase activity after 7 days, with 625 nanomolar all-trans retinoic acid, 1 micromolar rosiglitazone, 1 micromolar insulin) was 5.7. Besides, in series [2] (glycosylated hemoglobin, 2 weeks), the GBH is given as 6.6 ± 0.3%. The compound further yielded a Glucose in series [2] (2 weeks, non-fasting blood) of 380 ± 30 mg/dL. In series [2] (beginning to end of 2 week study), the “Body Weight Change” value worked out at 1.1 ± 0.5 g.
